Laboratory results as given in publication PMC6054517, “Design and synthesis of novel oridonin analogues as potent anticancer agents” (Journal of Enzyme Inhibition and Medicinal Chemistry, 2018).

Columns and labels:
Format in all cases: cell-based, human
Hela = test: MTT antiproliferative assay, HeLa cells; settings: MTT, 48 h, means ± SD, n = 3
Description: (§1) Human gastric cancer (AGS), human differentiation of advanced gastric cancer (MGC803), human colorectal cancer (HCT116), human lung cancer (A549), human hepatocellular carcinoma (Bel7402) and human cervical cancer (HeLa) cell lines were obtained from the State Key Laboratory of Natural Resources and Functional Molecules of the Changbai Mountain (Yanbian University) and maintained in Dulbecco’s modified Eagle’s medium and RPMI Media 1640 (RPMI1640), supplemented with 10% foetal bovine serum 100 IU/ml penicillin, […] and 2 mmol/l L-glutamine (Sigma) at 37 °7 in a humidified atmosphere containing 5% CO2.
(§2) All six human cancer cell lines and normal L02 cells were seeded in 96-well plates at the appropriate densities to ensure exponential growth throughout the experimental period (9 × 10^3 cells per well) and then allowed to adhere for 24 h. The cells were then treated for 48 h with four serial dilutions (100, 50, 10, and 1 µM) of each compound. 5-Fluorouracil (5-FU) was used as the positive control. After incubation for 48 h, 10 µl MTT solution was added to each well to give a final concentration of 2 mg ml^−1. The plates were then incubated for further 4 h. After incubation, the MTT solution was removed and 150 µl DMSO was added to each well to solubilise the formed product. To ensure complete solubilisation, the plates were shaken vigorously for 10 min at room temperature. The optometric density (OD) was read on a microplate reader (ELx800, BioTek, Highland Park, Winooski, VT) at a wavelength of 492 nm and the data were subsequently analysed. The percentage of cell growth inhibition was calculated from the following equation: inhibitory rate (%) = [1–(ODtreated–ODblank)/(ODcontrol–ODblank)] × 100.
(§3) The MTT assay was performed using a standard protocol.

HCT116 = test: MTT antiproliferative assay, HCT116 cells; settings: MTT, 48 h, means ± SD, n = 3
Description: as §1, §2, §3

Bel7402 = test: MTT antiproliferative assay, Bel7402 cells; settings: MTT, 48 h, means ± SD, n = 3
Description: as §1, §2, §3

MGC803 = test: MTT antiproliferative assay, MGC803 cells; settings: MTT, 48 h, means ± SD, n = 3
Description: as §1, §2, §3

AGS = test: MTT antiproliferative assay, AGS cells; settings: 48 h, MTT, means ± SD, n = 3
Description: as §1, §2, §3

A549 = test: MTT antiproliferative assay, A549 cells; settings: MTT, 48 h, means ± SD, n = 3
Description: as §1, §2, §3

Compound | IC50 (Hela; Homo sapiens, HeLa) | IC50 (HCT116; Homo sapiens, HCT-116, 48 h) | IC50 (Bel7402; Homo sapiens, Bel-7402) | IC50 (MGC803; Homo sapiens, MGC-803) | IC50 (AGS; Homo sapiens, AGS) | IC50 (A549; Homo sapiens, A549) | IC50 (Hela) | IC50 (HCT116) | IC50 (Bel7402) | IC50 (MGC803) | IC50 (AGS) | IC50 (A549)
O=c1[nH]cc(F)c(=O)[nH]1 [Compound 5-FU, 5-Fluorouracil, reference compound] | 34.6 ± 3.14 µM | 24.8 ± 2.08 µM | 21.3 ± 2.43 µM | 30.5 ± 4.42 µM | 29.6 ± 3.4 µM | 23.7 ± 3.14 µM | – | – | – | – | – | –
(1S,4aR,5S,6S,6aR,9S,11aS,14R,E)-8-(4-(((Z)-3,6-dimethylhepta-2,5-dien1yl)oxy)benzylidene)-1,5,6,14-tetrahydroxy-4,4-dimethyldecahydro-1H-6,11b-(epoxymethano)-6a,9-methanocyclohepta[a]naphthalen-7(8H)-one [Compound 2r] | – | – | – | – | – | – | 9.85 ± 2.03 µM | 2.39 ± 0.19 µM | 8.45 ± 1.32 µM | 6.86 ± 1.24 µM | 13.7 ± 2.63 µM | 4.16 ± 0.45 µM
CC1(C)CCC(O)C23COC(O)(C(O)C12)C12C(=O)C(=Cc4ccc5ccccc5c4)C(CCC31)C2O [Compound 2y, (1S,4aR,5S,6S,6aR,9S,11aS,14R,E)-1,5,6,14-tetrahydroxy-4,4-dimethyl-8-(napht-halen-2-ylmethylene)decahydro-1H-6,11b-(epoxymethano)-6a,9-methanocyclohepta[a]naphthalen-7(8H)-one] | 26 ± 1.48 µM | 17.5 ± 1.44 µM | 51.2 ± 5.43 µM | 21 ± 1.24 µM | 55 ± 4.43 µM | 12.6 ± 1.39 µM | – | – | – | – | – | –
COc1ccc(/C=C2/C(=O)[C@]34[C@H](O)[C@H]2CC[C@H]3C23CO[C@]4(O)[C@@H](O)[C@@H]2C(C)(C)CC[C@@H]3O)cc1 [Compound 2k, (1S,4aR,5S,6S,6aR,9S,11aS,14R,E)-1,5,6,14-tetrahydroxy-8-(4-methoxybenzylidene)-4,4-dimethyldecahydro-1H-6,11b-(epoxymethano)-6a,9-methanocyclohepta-[a]naphthalen-7(8H)-one] | 68.8 ± 5.32 µM | 2.99 ± 0.32 µM | 4.52 ± 0.46 µM | 2.79 ± 0.38 µM | 2.91 ± 0.42 µM | 16.8 ± 2.51 µM | – | – | – | – | – | –
COc1cc(/C=C2/C(=O)[C@]34[C@H](O)[C@H]2CC[C@H]3C23CO[C@]4(O)[C@@H](O)[C@@H]2C(C)(C)CC[C@@H]3O)cc(OC)c1OC [Compound 2n, (1S,4aR,5S,6S,6aR,9S,11aS,14R,E)-1,5,6,14-tetrahydroxy-4,4-dimethyl-8-(3,4,5-trimethoxybenzylidene)decahydro-1H-6,11b-(epoxymethano)-6a,9-methanocyclo-hepta[a]naphthalen-7(8H)-one] | 8.89 ± 0.94 µM | 18.6 ± 1.78 µM | 14.6 ± 1.21 µM | 28 ± 1.73 µM | 17.3 ± 2.41 µM | 15.8 ± 1.47 µM | – | – | – | – | – | –
Cc1ccccc1/C=C1/C(=O)[C@]23[C@H](O)[C@H]1CC[C@H]2C12CO[C@]3(O)[C@@H](O)[C@@H]1C(C)(C)CC[C@@H]2O [Compound 2f, (1S,4aR,5S,6S,6aR,9S,11aS,14R,E)-1,5,6,14-tetrahydroxy-4,4-dimethyl-8-(2-methylbenzylidene)decahydro-1H-6,11b-(epoxymethano)-6a,9-methanocyclohepta[a]-naphthalen-7(8H)-one] | > 100 µM | 59 ± 3.37 µM | > 100 µM | 22.8 ± 1.25 µM | > 100 µM | > 100 µM | – | – | – | – | – | –
CC1(C)CCC(O)C23COC(O)(C(O)C12)C12C(=O)C(=Cc4cccc(F)c4)C(CCC31)C2O [Compound 2b, (1S,4aR,5S,6S,6aR,9S,11aS,14R,E)-8-(3-fluorobenzylidene)-1,5,6,14-tetrahydroxy-4,4-dimethyldecahydro-1H-6,11b-(epoxymethano)-6a,9-methanocyclohepta[a]n-aphthalen-7(8H)-one] | > 100 µM | 36.6 ± 2.43 µM | > 100 µM | 23.6 ± 1.48 µM | 13.9 ± 1.5 µM | 47.4 ± 3.49 µM | – | – | – | – | – | –
COc1ccccc1/C=C1/C(=O)[C@]23[C@H](O)[C@H]1CC[C@H]2C12CO[C@]3(O)[C@@H](O)[C@@H]1C(C)(C)CC[C@@H]2O [Compound 2j, (1S,4aR,5S,6S,6aR,9S,11aS,14R,E)-1,5,6,14-tetrahydroxy-8-(2-methoxybenzylidene)-4,4-dimethyldecahydro-1H-6,11b-(epoxymethano)-6a,9-methanocyclohepta-[a]naphthalen-7(8H)-one] | 24.7 ± 2.08 µM | 5.08 µM | 3.56 ± 0.52 µM | 10.4 ± 1.29 µM | 2.87 ± 0.58 µM | 7.89 ± 0.99 µM | – | 5.48 ± 0.64 µM | – | – | – | –
Cc1cccc(/C=C2/C(=O)[C@]34[C@H](O)[C@H]2CC[C@H]3C23CO[C@]4(O)[C@@H](O)[C@@H]2C(C)(C)CC[C@@H]3O)c1 [Compound 2g, (1S,4aR,5S,6S,6aR,9S,11aS,14R,E)-1,5,6,14-tetrahydroxy-4,4-dimethyl-8-(3-methylbenzylidene)decahydro-1H-6,11b-(epoxymethano)-6a,9-methanocyclohepta[a]naphthalen-7(8H)-one] | 22.3 ± 1.92 µM | 14.2 ± 1.31 µM | 24.2 ± 2.27 µM | 17.7 ± 1.13 µM | 10.8 ± 2.39 µM | 66.9 ± 5.29 µM | – | – | – | – | – | –
CCCOc1ccc(/C=C2/C(=O)[C@]34[C@H](O)[C@H]2CC[C@H]3C23CO[C@]4(O)[C@@H](O)[C@@H]2C(C)(C)CC[C@@H]3O)cc1 [Compound 2o, (1S,4aR,5S,6S,6aR,9S,11aS,14R,E)-1,5,6,14-tetrahydroxy-4,4-dimethyl-8-(4-propoxybenzylidene)decahydro-1H-6,11b-(epoxymethano)-6a,9-methanocyclohepta-[a]naphthalen-7(8H)-one] | 8.21 ± 1.2 µM | 3.09 ± 0.41 µM | 6.54 ± 0.94 µM | 10.9 ± 1.39 µM | 10 ± 1.88 µM | 15.3 ± 1.31 µM | – | – | – | – | – | –
CC(C)=CCOc1cccc(/C=C2/C(=O)[C@]34[C@H](O)[C@H]2CC[C@H]3C23CO[C@]4(O)[C@@H](O)[C@@H]2C(C)(C)CC[C@@H]3O)c1 [Compound 2q, (1S,4aR,5S,6S,6aR,9S,11aS,14R,E)-1,5,6,14-tetrahydroxy-4,4-dimethyl-8-(3-((3-methylbut-2-en1yl)oxy)benzylidene)decahydro-1H-6,11b-(epoxymethano)-6a,9-methanocyclohepta[a]naphthalen-7(8H)-one] | 5.43 ± 0.85 µM | 7.63 ± 0.81 µM | 8.62 ± 1.12 µM | 9.1 ± 1.72 µM | 3.1 ± 0.41 µM | 4.66 ± 0.3 µM | – | – | – | – | – | –
Cc1ccc(/C=C2/C(=O)[C@]34[C@H](O)[C@H]2CC[C@H]3C23CO[C@]4(O)[C@@H](O)[C@@H]2C(C)(C)CC[C@@H]3O)cc1 [Compound 2h, (1S,4aR,5S,6S,6aR,9S,11aS,14R,E)-1,5,6,14-tetrahydroxy-4,4-dimethyl-8-(4-methylbenzylidene)decahydro-1H-6,11b-(epoxymethano)-6a,9-methanocyclohepta[a]naphthalen-7(8H)-one] | 28.7 ± 2.13 µM | 10.1 ± 1.39 µM | 11.3 ± 0.98 µM | 27.2 ± 2.38 µM | 5.26 ± 1.09 µM | 18 ± 1.49 µM | – | – | – | – | – | –
CC1(C)CCC(O)C23COC(O)(C(O)C12)C12C(=O)C(=Cc4cccc(Cl)c4)C(CCC31)C2O [Compound 2d, (1S,4aR,5S,6S,6aR,9S,11aS,14R,E)-8-(3-chlorobenzylidene)-1,5,6,14-tetrahydrox-y-4,4-dimethyldecahydro-1H-6,11b-(epoxymethano)-6a,9-methanocyclohepta[a]-naphthalen-7(8H)-one] | 15.2 ± 1.47 µM | 19.8 ± 3.19 µM | 16.9 ± 1.3 µM | 2.13 ± 0.13 µM | 14.1 ± 1.65 µM | 12.7 ± 1.56 µM | – | – | – | – | – | –
CC1(C)CC[C@H](O)C23CO[C@](O)([C@@H](O)[C@H]12)[C@]12C(=O)/C(=C/c4ccc(Cl)cc4)[C@H](CC[C@@H]31)[C@H]2O [Compound 2e, (1S,4aR,5S,6S,6aR,9S,11aS,14R,E)-8-(4-chlorobenzylidene)-1,5,6,14-tetrahydroxy-4,4-dimethyldecahydro-1H-6,11b-(epoxymethano)-6a,9-methanocyclohepta[a]-naphthalen-7(8H)-one] | > 100 µM | 14 ± 1.94 µM | 9.66 ± 1.15 µM | 7.27 ± 0.74 µM | 15.3 ± 1.78 µM | 23.1 ± 3.63 µM | – | – | – | – | – | –
CC1(C)CCC(O)C23COC(O)(C(O)C12)C12C(=O)C(=Cc4ccccc4)C(CCC31)C2O [Compound 2a, (1S,4aR,5S,6S,6aR,9S,11aS,14R,E)-8-benzylidene-1,5,6,14-tetrahydroxy-4,4-dimethyldecahydro-1H-6,11b-(epoxymethano)-6a,9-methanocyclohepta[a]naphthale-n-7(8H)-one] | > 100 µM | 47.1 ± 4.32 µM | 4.97 ± 0.56 µM | 9.13 ± 0.82 µM | > 100 µM | > 100 µM | – | – | – | – | – | –
